Experimental data published in patent US10662195B2, “Protein kinase conjugates and inhibitors” (Celgene Avilomics Research, Inc., priority 2009, dated 2020).

What was measured:
FAK (PTK2) = FAK (PTK2) (Homo sapiens, UniProt Q05397); experiment: Mass spectral analysis of intact FAK after incubation with compound; format: binding; conditions: 1 hr, 10× excess of compound to protein; for modification of FAK (PTK2) by compound, mass spec: intact protein MALDI
Method: Intact FAK (PTK2) was incubated for 1 hr at a 10× fold access of compound IV-29 to protein. 3 ul aliquots of the samples were diluted with 10 ul of 0.1% TFA prior to micro C4 ZipTipping directly onto the MALDI target using Sinapinic acid as the desorption matrix (10 mg/ml in 0.1% TFA:Acetonitrile 50:50). Mass spec analysis was run on intact FAK (PTK2) protein (m/z 146,672 Da), and on FAK that was incubated with compound IV-29 (mw=669.2).

FAK = target: T1, FAK (Homo sapiens, UniProt Q05397); experiment: FAK biochemical assay (OMNIA kinase assay, pre-activated FAK); conditions: FAK=15 nM, ATP=100 μM, 30 min pre-incubation
T1 construct: purchased Invitrogen (Madison, Wis.) M4446
Method: Activities of FAK inhibitors were assessed in an OMNIA® kinase assay (Invitrogen, Carlsbad, Calif.) using pre-activated FAK enzyme. Briefly, a 10× stock of pre-activated FAK enzyme (M4446) from Invitrogen (Madison, Wis.), 1.13×ATP (AS001A) and Y3-Sox conjugated peptide substrate (YP003A) were prepared in 1× kinase reaction buffer consisting of 20 mM Tris, pH 7.5, 5 mM MgCl2, 1 mM EGTA, 5 mM β-glycerophosphate, 5% glycerol (10× stock, KB002A) and 0.2 mM DTT (DS001A). 5 μL of enzyme were pre-incubated in a Corning (#3574) 384-well, white, non-binding surface microtiter plate (Corning, N.Y.) for 30 min at 27° C. with a 0.5 μL volume of 50% DMSO and serially diluted compounds prepared in 50% DMSO. Kinase reactions were started with the addition of 45 μL of ATP/Y3-Sox peptide substrate mix and monitored every 30-90 seconds for 60 minutes at λex360/λem485 in a Synergy^4 plate reader from BioTek (Winooski, Vt.). […] Initial velocity (0 minutes to ˜30 minutes) from each reaction was determined from the slope of a plot of relative fluorescence units vs time (minutes) and then plotted against inhibitor concentration to estimate IC50 from log [Inhibitor] vs Response, Variable Slope model in GraphPad Prism from GraphPad Software (San Diego, Calif.). […]

ERK = experiment: cKIT washout assay, downstream signaling (ERK phosphorylation); format: cell-based; conditions: GIST882 cell line, 1 micromolar, 90 minutes
Method: The next day cells were treated with 1 uM compound diluted in complete media for 90 minutes. After 90 minutes, the media was removed and cells were washed with compound-free media. Cells were washed every 2 hours and resuspended in fresh compound-free media. […] Protein concentrations were measured and 10 ug total protein lysate was loaded in each lane. C-kit phosphorylation was assayed by western blot with pTyr (4G10) antibody and total kit antibody from Cell Signaling Technology.
Sorafenib and XVIII-11 were tested for cellular activity in a GIST882 cell line at 1 micromolar. The results are depicted in FIGS. 2a and 2b where it is shown that XVIII-11 maintained c-KIT enzyme inhibition in […] cells after “washout” for at least 8 hours. […] In order to understand whether there was a prolonged inhibition with the irreversible inhibitor the cells were washed free of compound.

CKIT = experiment: cKIT washout assay in GIST882 cells (C-kit phosphorylation, western blot); format: cell-based
Method: GIST882 cells (See, Bauer et al., Cancer Research, 66(18):9153-9161 (2006)) were seeded in a 6 well plate at a density of 8×10^5 cells/well in complete media. The next day cells were treated with 1 uM compound diluted in complete media for 90 minutes. After 90 minutes, the media was removed and cells were washed with compound-free media. Cells were washed every 2 hours and resuspended in fresh compound-free media. Cells were collected at specified time points, lysed in Cell Extraction Buffer (Invitrogen FNN0011) supplemented with Roche complete protease inhibitor tablets (Roche 11697498001) and phosphatase inhibitors (Roche 04 906 837 001) and lysates were sheared by passing through a 28.5 gauge syringe 10 times each. Protein concentrations were measured and 10 ug total protein lysate was loaded in each lane. C-kit phosphorylation was assayed by western blot with pTyr (4G10) antibody and total kit antibody from Cell Signaling Technology.
Sorafenib and XVIII-11 were tested for cellular activity in a GIST882 cell line at 1 micromolar. The results are depicted in FIGS. 2a and 2b where it is shown that XVIII-11 maintained c-KIT enzyme inhibition in […] cells after “washout” for at least 8 hours. […] In order to understand whether there was a prolonged inhibition with the irreversible inhibitor the cells were washed free of compound. For the reversible inhibitor, Sorafenib, the inhibitory activity of cKIT and downstream signaling was overcome whereas the irreversible inhibition of XVIII-11 persisted for at least 8 hours.

Chain of FAK (PTK2) (Q05397 whole entry): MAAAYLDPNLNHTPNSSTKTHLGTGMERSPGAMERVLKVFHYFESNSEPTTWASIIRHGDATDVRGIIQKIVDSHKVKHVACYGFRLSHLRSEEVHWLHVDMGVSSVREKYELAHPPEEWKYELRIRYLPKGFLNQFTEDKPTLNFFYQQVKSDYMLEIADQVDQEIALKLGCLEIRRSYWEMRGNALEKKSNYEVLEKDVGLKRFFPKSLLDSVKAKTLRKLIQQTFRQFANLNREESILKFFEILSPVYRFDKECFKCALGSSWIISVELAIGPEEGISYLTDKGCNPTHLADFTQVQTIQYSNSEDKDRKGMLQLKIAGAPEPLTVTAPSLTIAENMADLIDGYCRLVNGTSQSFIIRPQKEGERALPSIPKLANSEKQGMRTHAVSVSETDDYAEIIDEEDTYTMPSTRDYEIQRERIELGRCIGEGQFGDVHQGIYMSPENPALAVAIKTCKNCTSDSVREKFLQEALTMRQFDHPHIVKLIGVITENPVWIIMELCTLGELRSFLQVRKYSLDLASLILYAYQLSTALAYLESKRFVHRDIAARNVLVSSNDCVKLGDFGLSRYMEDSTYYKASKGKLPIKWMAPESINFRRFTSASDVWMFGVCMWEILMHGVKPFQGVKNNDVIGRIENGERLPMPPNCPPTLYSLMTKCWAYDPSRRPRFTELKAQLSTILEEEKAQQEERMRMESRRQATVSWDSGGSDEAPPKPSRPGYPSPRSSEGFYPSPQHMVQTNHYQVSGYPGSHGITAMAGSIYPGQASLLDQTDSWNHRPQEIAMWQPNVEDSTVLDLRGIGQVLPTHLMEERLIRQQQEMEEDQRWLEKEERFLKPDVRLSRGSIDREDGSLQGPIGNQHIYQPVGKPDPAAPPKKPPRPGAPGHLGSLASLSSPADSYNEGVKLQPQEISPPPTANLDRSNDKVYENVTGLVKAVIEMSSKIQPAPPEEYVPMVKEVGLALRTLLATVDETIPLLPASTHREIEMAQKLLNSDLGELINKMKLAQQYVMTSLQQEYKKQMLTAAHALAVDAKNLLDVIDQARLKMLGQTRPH
T1 sequence (Q05397 whole entry): as above

Compound | positive shift of centroid mass of FAK (FAK (PTK2)) | modification of FAK (PTK2) by compound, mass spec (FAK (PTK2)) | IC50 (FAK) | inhibition of downstream signaling of ERK (ERK) | inhibitory activity of cKIT and downstream signaling after washout (CKIT; 1 uM for 90 minutes, then washed free of compound) | inhibition of cKIT autophosphorylation (CKIT; GIST882 cell line, 1 micromolar, 90 minutes)
C=CC(=O)Nc1ccc(C(=O)NC2(C)CCN(c3ccc(Nc4ncc(Cl)c(Nc5ccccc5C(=O)NC)n4)c(OC)c3)CC2)cc1 [IV-29, 2-(2-(4-(4-(4-acrylamidobenzamido)-4-methylpiperidin-1-yl)-2-methoxyphenylamino)-5-chloropyrimidin-4-ylamino)-N-methylbenzamide] | about 365 Da | almost complete modification of FAK | 5.24 nM | – | – | –
C=CC(=O)N1CCC2(CCCN(c3ccc(Nc4ncc(Cl)c(Nc5ccccc5C(=O)NC)n4)c(OC)c3)C2)CC1 [IV-30, 2-{2-[4-(9-Acryloyl-2,9-diaza-spiro[5.5]undec-2-yl)-2-methoxy-phenylamino]-5-chloro-pyrimidin-4-ylamino}-N-methyl-benzamide] | – | did not modify FAK | 5.89 nM | – | – | –
CNC(=O)c1cc(Oc2ccc(NC(=O)Nc3ccc(Cl)c(C(F)(F)F)c3)cc2)ccn1 [Sorafenib, sorafenib] | – | – | – | inhibited | overcome | inhibited cKIT autophosphorylation
